The values below are quoted from earlier work in article PMC8541945 (Investigational New Drugs, 2021).

Series [1] has as its system patients. As to conditions: single agent, phase 1 trials.
Series [2] relates to patients in the ribociclib group.
The conditions of series [3]: following multiple doses, 600-mg dose group.
The test system of series [4] is heavily pretreated patients, HR + /HER2- advanced BC. On the set-up: method as in PMID 28533223. As to conditions: abemaciclib alone, 132 heavily pretreated patients.
The test system of series [5] is brain metastases secondary to HR + /HER2- metastatic BC. Also on record: method as in earlier work.
In series [6] the test system is patients. Also on record: method as in PMID 28580882, PMID 28968163.

For `CN(C)C(=O)c1cc2cnc(Nc3ccc(N4CCNCC4)cn3)nc2n1C1CCCC1` [ribociclib], the “Patients who experienced SD” value in series [1] was “approximately 30%”. The “Patients with dose interruptions or dose reductions due to QTcF increase” value in series [2] (13 patients) is recorded as 4%. Further, the “Patients with increase of more than 60 ms from baseline in the QTcF interval” value in series [2] (32 of 335 patients in the ribociclib group) is listed as 10%. Also, the “Cmax, geometric mean [range]” value in series [3] is 1940 [range, 859–5860] ng/ml.

In the case of `CC(=O)c1c(C)c2cnc(Nc3ccc(N4CCNCC4)cn3)nc2n(C2CCCC2)c1=O` [palbociclib], in series [1], the “Patients who experienced SD” value is reported as “approximately 30%”.

With `CCN1CCN(Cc2ccc(Nc3ncc(F)c(-c4cc(F)c5nc(C)n(C(C)C)c5c4)n3)nc2)CC1` [abemaciclib], in series [4], the CBR was 42.4%, the “Confirmed ORR” value is 19.7%, the “Median OS” value is given as 17.7 months and the “Median PFS” value is recorded as 6.0 months. Further, in series [5], the “Confirmed objective intracranial response” value was 6%, the “Intracranial clinical benefit rate (CR + PR + SD persisting for ≥ 6 months)” value is reported as 25% and the “Patients with a decrease in the sum of intracranial target lesions” value is listed as 38%. Besides, the “Grade 3/4 neutropenia” value in series [6] is 21.1%.
